For this experiment, the target named is CDK7/CycH/MNAT1 (Homo sapiens (Human), UniProt P50613). Briefly: Biochemical Assay for CDK7 (TR-FRET kinase assay). The note with it: 60 min pre-incubation with kinase, 1 mM ATP. As for the experimental part:
Biochemical Assay for CDK7:
The ability of compounds to inhibit CDK7 kinase activity was tested in a TR-FRET assay using 5 nM of CDK7/CycH/MNAT1 obtained from Invitrogen, USA. Test compounds were pre-incubated with the kinase at room temperature for 60 min. After the incubation, substrate mix [100 nM Ultra-light MBP (Perkin Elmer, USA) and 1 mM ATP (Sigma)] was added. The above reaction was stopped by the addition of 40 mM EDTA after 60 minutes of kinase reaction. 1 nM Eu-labelled antiphospho-MBP antibody [Perkin Elmer, USA] was added, mixed well and the fluorescence emission at 615 nm and 665 nm [excitation at 340 nm] was measured. The final DMSO concentration in the assay was 1%. For IC50 determination, appropriate concentrations were made by ⅓^rd serial dilutions of 10 mM DMSO stock solution of test compound. All the fluorescence measurements were made in a Victor 3 Multilabel Counter [Perkin Elmer, USA]. The IC50 was determined by fitting the dose response data to sigmoidal curve fitting equation using GraphPad Prism software V5. To identify compounds that inhibit CDK7 irreversibly, time depended inhibition studies were carried by pre-incubating compound with the enzyme at three time points (20, 60 and 180 min) and carrying out assay as described above.
The compounds were screened by the above mentioned assay procedure.
For orientation: In TR-FRET formats the signal depends on donor and acceptor labels being close together.

The inhibition is the change of the read-out against control, counted positive when it falls. A high value points to a strong effect. As a reminder, the IC50 is the concentration that gives 50% inhibition.

Sequence of CDK7/CycH/MNAT1 (P50613 whole entry): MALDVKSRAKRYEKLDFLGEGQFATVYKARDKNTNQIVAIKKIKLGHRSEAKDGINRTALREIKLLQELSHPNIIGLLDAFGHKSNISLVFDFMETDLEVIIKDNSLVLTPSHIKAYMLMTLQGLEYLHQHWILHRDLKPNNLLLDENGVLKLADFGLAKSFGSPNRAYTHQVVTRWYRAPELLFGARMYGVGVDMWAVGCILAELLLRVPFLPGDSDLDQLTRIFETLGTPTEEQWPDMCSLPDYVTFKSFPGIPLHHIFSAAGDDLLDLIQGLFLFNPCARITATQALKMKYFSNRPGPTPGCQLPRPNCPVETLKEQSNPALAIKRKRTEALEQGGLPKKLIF
Sequence of CDK7/CycH/MNAT1 (P51946 whole entry partner): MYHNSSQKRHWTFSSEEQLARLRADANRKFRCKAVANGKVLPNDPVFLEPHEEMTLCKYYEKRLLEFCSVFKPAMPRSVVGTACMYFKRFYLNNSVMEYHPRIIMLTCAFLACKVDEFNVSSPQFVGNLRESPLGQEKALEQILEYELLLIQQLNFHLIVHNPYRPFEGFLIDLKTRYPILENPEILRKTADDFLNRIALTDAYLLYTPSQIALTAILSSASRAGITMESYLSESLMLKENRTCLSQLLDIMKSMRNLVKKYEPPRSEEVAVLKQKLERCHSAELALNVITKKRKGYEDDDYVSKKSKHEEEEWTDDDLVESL
Sequence of CDK7/CycH/MNAT1 (P51948 whole entry partner): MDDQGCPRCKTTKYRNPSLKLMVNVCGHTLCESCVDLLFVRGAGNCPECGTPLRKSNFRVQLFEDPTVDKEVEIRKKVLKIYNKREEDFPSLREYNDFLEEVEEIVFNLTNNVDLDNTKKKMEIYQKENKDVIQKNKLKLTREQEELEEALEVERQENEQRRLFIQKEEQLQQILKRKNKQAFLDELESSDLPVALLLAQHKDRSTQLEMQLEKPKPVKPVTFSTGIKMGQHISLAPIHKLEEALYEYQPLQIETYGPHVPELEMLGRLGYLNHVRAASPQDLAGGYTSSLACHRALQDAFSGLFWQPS

The compound `C=CC(=O)Nc1ccc(-c2cccc(CC(=O)Nc3cc(C)[nH]n3)c2)cc1` [Compound 86, N-(3′-(2-((5-Methyl-1H-pyrazol-3-yl)amino)-2-oxoethyl)-[1,1′-biphenyl]-4-yl)acrylamide] had an inhibition at 10 µM (10 μM compound) of 48%.

As for `COC[C@@H]1CCCN1C/C=C/C(=O)Nc1ccc(-c2cccc(C(C)C(=O)Nc3cc(C4CC4)[nH]n3)c2)cn1` (single isomer, unassigned) [Compound 72], the IC50 was < 0.025 µM. Also, the “% inhibition @ 10 μM” value (10 μM compound) was 98%.

Turning to `CC(C(=O)Nc1cc(C2CC2)n(C)n1)c1cccc(-c2ccc(NC(=O)/C=C/CN(C)C)cc2)c1` (stereo not shown) [Compound 6, (E)-N-(3′-(1-((5-cyclopropyl-1-methyl-1H-pyrazol-3-yl)amino)-1-oxopropan-2-yl)-[1,1′-biphenyl]-4-yl)-4-(dimethylamino)but-2-enamide], 10 µM produced 0% inhibition (10 μM compound).

On to `COC(=O)[C@@H]1CCCN1C/C=C/C(=O)Nc1ccc(-c2cccc(C(C)C(=O)Nc3cc(C4CC4)[nH]n3)c2)cn1` (stereo partly drawn) [Compound 81, methyl ((E)-4-((5-(3-(1-((5-cyclopropyl-1H-pyrazol-3-yl)amino)-1-oxopropan-2-yl)phenyl)pyridin-2-yl)amino)-4-oxobut-2-en-1-yl)-L-prolinate], for which the IC50 fell in the range of 0.025 to 0.1 µM. The compound also yielded an inhibition at 10 µM (10 μM compound) of 100%.

For the compound `CC(C(=O)Nc1cc(C2CC2)[nH]n1)c1cccc(-c2ccc(NC(=O)/C=C/CN3CC[C@@H](F)C3)nc2)c1` (single isomer, unassigned) [Compound 50], the IC50 was < 0.025 µM. In addition, under “10 μM compound”, the inhibition at 10 µM was found to be 94%.

`C=CC(=O)N1CCc2cc(-c3cccc(C(C)C(=O)Nc4cc(C5CC5)[nH]n4)c3)ccc21` (stereo not shown) [Compound 76, 2-(3-(1-acryloylindolin-5-yl)phenyl)-N-(5-cyclopropyl-1H-pyrazol-3-yl)propanamide]: the IC50 was < 0.025 µM. For the same compound, under “10 μM compound”, the inhibition at 10 µM came to 98%.

As for `C=CC(=O)Nc1ccc(C(=O)Nc2cccc(Nc3cc(CC)[nH]n3)c2)cc1` [Compound 83, 4-acrylamido-N-(3-((5-ethyl-1H-pyrazol-3-yl)amino)phenyl)benzamide], the IC50 was > 0.1 µM. At 10 µM the inhibition (10 μM compound) was 62%.

On to `CC(C(=O)Nc1cc(C2CC2)[nH]n1)c1cccc(-c2ccc(NC(=O)/C=C/CN3CCCCC3)nc2)c1` (stereo not shown) [Compound 40, (E)-N-(5-(3-(1-((5-cyclopropyl-1H-pyrazol-3-yl)amino)-1-oxopropan-2-yl)phenyl)pyridin-2-yl)-4-(piperidin-1-yl)but-2-enamide], for which the IC50 was < 0.025 µM. Also, the inhibition at 10 µM (10 μM compound) was found to be 100%.

Take `C=CC(=O)Nc1c(C)cc(-c2cccc(C(C)C(=O)Nc3cc(C4CC4)[nH]n3)c2)cc1C` (stereo not shown) [Compound 67, N-(3′-(1-((5-cyclopropyl-1H-pyrazol-3-yl)amino)-1-oxopropan-2-yl)-3,5-dimethyl-[1,1′-biphenyl]-4-yl)acrylamide]: the IC50 was > 0.1 µM. Besides, the inhibition at 10 µM (10 μM compound) was 79%.

As for `CC(C(=O)Nc1cc(C2CC2)[nH]n1)c1cccc(-c2cncc(NC(=O)/C=C/CN3CCOCC3)c2)c1` (stereo not shown) [Compound 60, (E)-N-(5-(3-(1-((5-cyclopropyl-1H-pyrazol-3-yl)amino)-1-oxopropan-2-yl)phenyl)pyridin-3-yl)-4-morpholinobut-2-enamide], the IC50 was in the range of 0.025 to 0.1 µM. Besides, the inhibition at 10 µM (10 μM compound) stood at 99%.

On to `CC(C(=O)Nc1cc(C2CC2)[nH]n1)c1cccc(-c2ccc(NC(=O)/C=C/CN(C)C)c(F)n2)c1` (stereo not shown) [Compound 38, (E)-N-(6-(3-(1-((5-cyclopropyl-1H-pyrazol-3-yl)amino)-1-oxopropan-2-yl)phenyl)-2-fluoropyridin-3-yl)-4-(dimethylamino)but-2-enamide], for which the IC50 was > 0.1 µM. Besides, the inhibition at 10 µM (10 μM compound) worked out at 94%.

In the case of `C=CC(=O)Nc1ccc(-c2cccc(C(C)C(=O)Nc3cc(C4CC4)[nH]n3)c2)cc1` (stereo not shown) [Compound 18, N-(3′-(1-((5-cyclopropyl-1H-pyrazol-3-yl)amino)-1-oxopropan-2-yl)-[1,1′-biphenyl]-4-yl)acrylamide], the IC50 was > 0.1 µM. Moreover, under “10 μM compound”, the inhibition at 10 µM came to 95%.

For the compound `COC[C@@H]1CCCN1C/C=C/C(=O)Nc1ccc(-c2cccc(C(C)C(=O)Nc3cc(C4CC4)[nH]n3)c2)cn1` (stereo partly drawn) [Compound 70, (E)-N-(5-(3-(1-((5-cyclopropyl-1H-pyrazol-3-yl)amino)-1-oxopropan-2-yl)phenyl)pyridin-2-yl)-4-((S)-2-(methoxymethyl)pyrrolidin-1-yl)but-2-enamide], the IC50 lay within 0.025 to 0.1 µM. For the same compound, for the setting “10 μM compound”, testing at 10 µM gave an inhibition of 81%.

With `CC(C(=O)Nc1cc(C(C)(C)C)[nH]n1)c1cccc(-c2ccc(NC(=O)/C=C/CN(C)C)cc2)c1` (stereo not shown) [Compound 9, (E)-N-(3′-(1-((5-(tert-butyl)-1H-pyrazol-3-yl)amino)-1-oxopropan-2-yl)-[1,1′-biphenyl]-4-yl)-4-(dimethylamino)but-2-enamide], the IC50 is > 0.1 µM. This compound also displayed an inhibition at 10 µM (10 μM compound) of 60%.

In the case of `CCC(C(=O)Nc1cc(C2CC2)[nH]n1)c1cccc(-c2ccc(NC(=O)/C=C/CN(C)C)cc2)c1` (stereo not shown) [Compound 13, (E)-N-(3′-(1-((5-cyclopropyl-1H-pyrazol-3-yl)amino)-1-oxobutan-2-yl)-[1,1′-biphenyl]-4-yl)-4-(dimethylamino)but-2-enamide], the IC50 fell in the range of 0.025 to 0.1 µM. Further, under “10 μM compound”, the inhibition at 10 µM was determined as 97%.

As to `CC(C(=O)Nc1cc(C2CC2)[nH]n1)c1cccc(-c2ccc(NC(=O)/C=C/CN3CC[C@H](F)C3)nc2)c1` (single isomer, unassigned) [Compound 47], the IC50 is < 0.025 µM. Further, the inhibition at 10 µM (10 μM compound) came out at 91%.

For the compound `CC(C(=O)Nc1cc(C2CC2)[nH]n1)c1cccc(-c2ccc(NC(=O)/C=C/CN3CCCCC3)cn2)c1` (stereo not shown) [Compound 39, (E)-N-(6-(3-(1-((5-cyclopropyl-1H-pyrazol-3-yl)amino)-1-oxopropan-2-yl)phenyl)pyridin-3-yl)-4-(piperidin-1-yl)but-2-enamide], the IC50 was > 0.1 µM. The inhibition at 10 µM (10 μM compound) was 84%.

`CC(C(=O)Nc1cc(C2CC2)[nH]n1)c1cccc(-c2ccc(NC(=O)/C=C/CN3CCCC3)nc2)c1` (stereo not shown) [Compound 52, (E)-N-(5-(3-(1-((5-cyclopropyl-1H-pyrazol-3-yl)amino)-1-oxopropan-2-yl)phenyl)pyridin-2-yl)-4-(pyrrolidin-1-yl)but-2-enamide]: the IC50 was < 0.025 µM. For the same compound, the inhibition at 10 µM (10 μM compound) was found to be 91%.

`C=CC(=O)Nc1ccc(-c2cccc(C(C)C(=O)Nc3cc(C4CC4)[nH]n3)c2)cc1F` (stereo not shown) [Compound 19, N-(3′-(1-((5-cyclopropyl-1H-pyrazol-3-yl)amino)-1-oxopropan-2-yl)-3-fluoro-[1,1′-biphenyl]-4-yl)acrylamide] showed an IC50 of 0.025 to 0.1 µM. Under “10 μM compound”, this compound registered an inhibition at 10 µM of 97%.

As to `C=CC(=O)Nc1ccc(-c2cccc(C(C)C(=O)Nc3cc(C4CC4)[nH]n3)c2)cn1` (stereo not shown) [Compound 20, N-(5-(3-(1-((5-cyclopropyl-1H-pyrazol-3-yl)amino)-1-oxopropan-2-yl)phenyl)pyridin-2-yl)acrylamide], the IC50 was < 0.025 µM. The compound further registered an inhibition at 10 µM (10 μM compound) of 100%.

Consider `C=CC(=O)Nc1ccc(-c2cccc(C(C)C(=O)Nc3cc(C4CC4)[nH]n3)c2)cn1` (single isomer, unassigned) [Compound 21, N-(5-(3-(1-((5-cyclopropyl-1H-pyrazol-3-yl)amino)-1-oxopropan-2-yl)phenyl)pyridin-2-yl)acrylamide], for which the IC50 is > 0.1 µM. For the same compound, 10 µM produced 89% inhibition (10 μM compound).

Source of the values: patent publication US11174232B2, “Substituted heterocyclyl derivatives as CDK inhibitors” (Aurigene Discovery Technologies Limited, priority 2015, dated 2021).
